Several values for one entry are separate records, joined by “and”; a condition that tells them apart may be missing. Identical values can stand only once.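 Five concentrations, 48 hours, 96-well plates. At the GI50, growth is halved. Definition used: TGI = concentration required for complete inhibition of growth.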
Columns and labels:
Test in all cases: inhibition of tumour cell growth, NCI panel, 48 h
NCI-H23 lung = system: NCI-H23 lung
NCI/ADR-RES ovarian = system: NCI/ADR-RES ovarian
SF-268 CNS = system: SF-268 CNS
HCT-116 colon = system: HCT-116 colon
UACC-62 melanoma = system: UACC-62 melanoma
COLO 205 colon = system: COLO 205 colon
TK-10 renal = system: TK-10 renal
RXF 393 renal = system: RXF 393 renal
HCT-15 colon = system: HCT-15 colon
OVCAR-5 ovarian = system: OVCAR-5 ovarian

SMILES	GI50 (NCI-H23 lung) [µM]	TGI (NCI-H23 lung) [µM]	GI50 (NCI/ADR-RES ovarian) [µM]	TGI (NCI/ADR-RES ovarian)	GI50 (SF-268 CNS)	TGI (SF-268 CNS) [µM]	GI50 (HCT-116 colon) [µM]	TGI (HCT-116 colon) [µM]	GI50 (UACC-62 melanoma) [µM]	TGI (UACC-62 melanoma)	GI50 (COLO 205 colon) [µM]	TGI (COLO 205 colon) [µM]	GI50 (TK-10 renal) [µM]	TGI (TK-10 renal) [µM]	GI50 (RXF 393 renal)	TGI (RXF 393 renal)	GI50 (HCT-15 colon)	TGI (HCT-15 colon) [µM]	GI50 (OVCAR-5 ovarian) [µM]	TGI (OVCAR-5 ovarian) [µM]
Clc1ccc2c(c1)N(C1CCCN(Cc3ccccc3)C1)c1ccccc1S2 (centres undefined)	9.33	> 100	3.24	13.7 µM	3.8 µM	> 100	2.92	11.5	6.94	> 100 µM	2.9	10.1	71.8	> 100	3.69 µM	25.3 µM	4.12 µM	> 100	14.6	> 100
COC1C=COC2(C)Oc3c(C)c(O)c4c(O)c(c(C5SCCS5)c(O)c4c3C2=O)NC(=O)/C(C)=C\C=CC(C)C(O)C(C)C(O)C(C)C(OC(C)=O)C1C (centres undefined)	–	18.4	–	34.6 µM	–	32	–	48.7	–	19.2 µM	–	6.79	–	14.2	–	24.1 µM	–	21.8	–	27.8
CC(=O)Nc1ccc(S(=O)(=O)N=S(C)C)cc1	–	> 100	–	> 100 µM	–	> 100	–	> 100	–	> 100 µM	–	> 100	–	> 100	–	> 100 µM	–	> 100	–	> 100
Fc1ccc(-c2nn3ccccc3c2-c2ccncc2)cc1	> 25	> 25	> 25	> 25 µM	> 25 µM	> 25	> 25	> 25	> 18.9	> 25 µM	> 25	> 25	12	> 25	> 25 µM	> 25 µM	> 25 µM	> 25	> 25	> 25
N#Cc1nc(C#N)c(Sc2ccccc2)c(Sc2ccccc2)c1Sc1ccccc1	0.36	2.35	0.504	> 100 µM	0.331 µM	1.03	0.301	–	1.37	3.2 µM	0.719	2.03	0.502	3.43	0.98 µM	3.22 µM	0.574 µM	3.21	2.34	4.68
Cn1c(=O)c(Oc2ccc(F)cc2F)cc2cnc(N[C@@H]3CCOC3)nc21	> 25	> 25	> 25	> 25 µM	> 25 µM	> 25	> 25	> 25	> 25	> 25 µM	> 25	> 25	> 25	> 25	> 25 µM	> 25 µM	> 25 µM	> 25	> 25	> 25
[N-]=[N+]=NCCCn1c2c(c3ccc([N+](=O)[O-])cc3c1=O)C(=O)c1cc(-c3ccccc3)ccc1-2	> 100	> 100	> 100	> 100 µM	> 100 µM	> 100	> 100	> 100	> 100	> 100 µM	> 100	> 100	> 100	> 100	> 100 µM	> 100 µM	> 100 µM	> 100	> 100	> 100
Nc1ncc(-c2ccc3ncnc(N4CCc5ccc(Cl)cc54)c3c2)cc1C(F)(F)F	3.79	29.4	2.26	91.1 µM	1.13 µM	24.7	2.53	16.6	0.965	11.1 µM	3.68	30.5	1.36	11	0.181 µM	0.864 µM	1.3 µM	22.6	0.916	14.4
O=C(/C=C/c1ccccn1)c1ccc(OCc2nnc(-c3ccc(Cl)cc3)o2)cc1	2.13	4.58	3.67	41.3 µM	–	–	0.45	1.62	1.83	3.55 µM	2.23	4.39	2.68	6.24	1.7 µM	3.17 µM	1.62 µM	3.36	2.49	4.89
O=C(c1ccc([N+](=O)[O-])cc1)C(Br)C(Br)c1ccnc2ccccc12 (centres undefined)	–	> 21.9	–	> 71.7 µM	–	45.2	–	4.04	–	24.6 µM	–	28.9	–	12.6	–	21.2 µM	–	27.3	–	33
O=C(Nc1cc(F)c(F)cc1C(=O)O)c1ccc(-n2ccnc2)nn1	> 100	> 100	> 100	> 100 µM	> 100 µM	> 100	> 100	> 100	> 100	> 100 µM	> 100	> 100	> 100	> 100	19.6 µM	> 100 µM	> 100 µM	> 100	> 100	> 100
O=C1Nc2ccccc2/C1=C\c1nc(-c2ccccc2F)n2ccccc12	4.55	17.3	3.36	13.3 µM	4.65 µM	18.7	1.97	4.04	6.32	25.2 µM	4.08	14.9	4.05	14.2	3.14 µM	10.7 µM	13 µM	> 100	18	53.5
C=C1C(=O)O[C@H]2[C@H]1CC/C(COC(=O)/C=C\C(=O)NCc1ccc(Cn3c(=O)sn(CCI)c3=O)cc1)=C\CC[C@@]1(C)O[C@@H]21	3.34	11.8	10.2	> 100 µM	10.1 µM	23.6	1.93	4.75	1.83	3.86 µM	2.06	3.69	2.09	4.35	1.81 µM	3.69 µM	2.1 µM	5.42	3.56	13.3
COc1ccc2c(c1)CCc1cc(OC)ccc1/[N+]([O-])=[N+]\2[O-]	–	52.4	–	> 62 µM	–	32.9	–	–	–	30.6 µM	–	28.8	–	45	–	12.2 µM	–	42.9	–	52.7
O=C1NC2(CCCCC2)C(=O)N1CCN(CCCl)CCCl	24.8	–	> 25	> 25 µM and 184 µM	> 25 µM and 112 µM	> 250	> 25	> 250	> 25	> 25 µM and 242 µM	> 25	> 250	–	> 25	> 25 µM and 99.2 µM	> 25 µM and 202 µM	> 25 µM and 200 µM	> 242	> 25	> 250
Cc1ccc(-c2nc(-c3nccc4ccccc34)oc2-c2ccccc2)cc1	–	> 100	–	> 100 µM	–	> 100	–	> 100	–	> 100 µM	–	> 100	–	> 100	–	> 100 µM	–	> 100	–	> 100
C#C[C@@]1(O)[C@@H](CO)O[C@@H](n2cc(C(F)(F)F)c3c(N)ncnc32)[C@@H]1O	0.651	8.19	0.487	> 24.7 µM	1.55 µM	> 22.9	0.363	> 100	0.707	2.63 µM	0.255	1.27	0.966	> 28.2	0.841 µM	2.74 µM	0.679 µM	> 25.5	1.59	7.06
COS(C)(=O)=O	–	> 2	–	> 2 µM	–	> 2	–	> 2	–	> 2 µM	–	> 2	–	> 2	–	> 2 µM	–	> 2	–	> 2
Cc1ccc(Cl)c(NS(=O)(=O)c2ccc(-c3cnc(C4CC4)o3)cc2)c1	0.365	62.8	0.0618	6.04 µM	3.33 µM	> 66.3	0.0537	> 36.8	0.0472	34.8 µM	0.154	1.36	16	> 89.7	0.199 µM	> 100 µM	0.055 µM	18.2	0.439	> 100
O=C(Nc1cc(Cl)ccc1O)c1cccc(Nc2ccnc(C(F)(F)F)c2)c1	0.771	7.74	2.67	14.1 µM	7.35 µM	22.8	2.22	17.6	0.901	11.9 µM	3.18	15	4.51	19.8	11 µM	29.1 µM	2.61 µM	42.1	13.9	38.5
CC(=O)/C(Br)=C/c1ccc(Br)o1	12.1	41.7	7.88	38.3 µM	7.58 µM	23.6	2.13	5.89	14	28.3 µM	7.55	20.9	5.42	17.9	2.86 µM	11 µM	4.2 µM	16.1	13.7	34.4
COc1ccc(C(=O)c2cc3c(N)c(C(=O)Nc4cccc(Br)c4C)sc3nc2C)cc1	0.354	> 100	0.0402	> 100 µM	0.173 µM	> 100	0.038	–	0.0456	> 100 µM	0.22	0.987	36.4	> 100	0.0214 µM	–	0.0489 µM	> 100	0.187	> 100
CCCc1nc(Cl)c(Cl)c(Cl)n1	–	> 100	–	> 100 µM	–	33.4	–	26.8	–	> 100 µM	–	> 100	–	> 100	–	56.4 µM	–	> 63.7	–	97.9
CCC(C)C1=C(O)[N+]2([O-])Oc3ccc(C4=C(O)C(=O)C(c5ccc(O)cc5)=C(O)C4=O)cc3OC2(C(C)CC)C(=O)N1O (centres undefined)	13.3	> 100	7.86	> 100 µM	5.83 µM	> 100	5.02	> 100	5.68	65.1 µM	12.6	> 100	3.41	> 100	8.49 µM	> 100 µM	5.82 µM	> 100	> 100	> 100
COc1cc2c(c(OC)c1OC)-c1ccc(SC)c(=O)cc1[C@@H](NC(=O)C(F)(F)F)CC2	–	> 4.64	–	79.9 µM	–	63.9	–	4.42	–	> 100 µM	–	< 0.0631	–	> 100	–	1.28 µM	–	> 15.8	–	> 100
O=C(Nc1ccccc1)OC1OC(COC(=O)c2ccccc2)C(OC(=O)c2ccccc2)C1OS(=O)(=O)c1ccc([N+](=O)[O-])cc1 (centres undefined)	–	> 100	–	> 100 µM	–	> 100	–	> 100	–	> 100 µM	–	> 100	–	> 100	–	> 100 µM	–	> 100	–	> 100
Oc1ccc2ccccc2c1C=NCc1c(O)ccc2ccccc12	–	> 100	–	> 100 µM	–	> 100	–	> 100	–	> 100 µM	–	> 100	–	> 100	–	9.34 µM	–	> 100	–	> 100
O=C1C=C(OCC=C(C(F)(F)F)C(F)(F)F)c2ccccc2C1=O	–	–	3.21	14.7 µM	2.53 µM	7.42	2.07	5.08	1.7	4.1 µM	2.11	4.73	–	–	1.69 µM	3.18 µM	2.06 µM	5.7	2.45	5.87
NCCCNc1nc2ccccc2c2c(=O)c3cccc(Cl)c3sc12	1.4	2.85	1.71	3.25 µM	–	–	1.34	2.7	1.67	3.17 µM	–	–	2.31	3.95	1.47 µM	2.83 µM	1.64 µM	3.16	1.55	3.04

Reference: PubChem BioAssay (NCI)
